Tested on: aphid (M. persicae)
Assay: Bioassay: M. persicae protein on potato, pepper and black mustard plants treated with BABA and/or PBO
Type: in vivo, Myzus persicae
Details: 3 adult apterous aphids per plant, 3 mM BABA root drench, PBO E spray, 7 days
Method: In all bioassay experiments the control plants were sprayed with deionised water. Initially seven treatments were used (Table 1b) to test all chemical variables. […] Analysis of protein in each treatment was conducted using Bradford Reagent: the data were analysed using the computer programme ‘GraFit’ (Erithacus software, Berkeley). To calculate the calibration curve a single logarithmic curve was used with regression analysis taking the values of the treatment wells (averages of the three readings taken: technical replicates). Laboratory tests were undertaken to compare effects of combined and single treatments of PBO and BABA on control of aphid (M. persicae) on potato, pepper, and black mustard and whitefly (B. tabaci) on cotton and tomato. All tests included untreated and blank (water) controls, and both single and combined applications of PBO and BABA. […] To investigate developmental/fecundity effects of BABA+/−PBO E (see Table 1) on Myzus persicae when applied to plants, adults were added to the plants and then using Bradford reagent, the amount of aphid protein present on the plants 7 days after treatment was measured. Esterase levels were also tested after the same interval to check for the possible induction of metabolic enzymes when using BABA. Aphids were brushed from all plants and each leaf checked individually to ensure none remained. The aphid mass for each treatment was weighed before total protein was assessed (total from all five plants in the treatment).

SMILES: CCCCOCCOCCOCc1cc2c(cc1CCC)OCO2 [PBO, 2-(2-butoxyethoxy)ethyl 6-propylpiperonyl ether]
- Protein A (Av) (five black mustard plants, week 1): 19.30 µg
- Protein A (Av) (five black mustard plants, week 2): 18.90 µg
- Protein A (Av) (five black mustard plants, week 3): 18.00 µg
- Protein A (Av) (five pepper plants, week 1): 22.10 µg
- Protein A (Av) (five pepper plants, week 2): 21.60 µg
- Protein A (Av) (five pepper plants, week 3): 23.50 µg
- Protein A (Av) (five potato plants, week 1): 17.60 µg
- Protein A (Av) (five potato plants, week 2): 22.30 µg
- Protein A (Av) (five potato plants, week 3): 19.20 µg
